Assay results: patent publication US10253002B2, “Compounds and methods of treating infections” (Neoculi Pty Ltd., priority 2013, dated 2019)

Tests used:
VRE = assay: Broth microdilution MIC, Example 7 (NCL812 and analogues); assay type: cell-based, Enterococcus spp.
Summary of the method: (§1)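 Turbidity read visually and then at 600 nm defined the MIC (μg/ml), comparing drug-containing wells with a growth-control well lacking antimicrobial. Testing followed the CLSI broth microdilution method, in duplicate, using two strains per organism group.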

[1] = Bioassay ranking of the analogues tested; conditions: M + R (MRSA and VRE combined)
S. pneumoniae isolates [2] = assay: MBC, Example 5; assay type: cell-based, Streptococcus pneumoniae
Protocol: (§2) [Micro-broth dilutions and 96 well trays are prepared by the following method: 90 μL of 4% LHB:CAMHB is aliquotted into all wells using a multichannel pipette. 90 μL of working antimicrobial stocks were no serial diluted down the tray by a 1:2 dilution. Negative broth controls and dilution control were taken into account when planning the set up of a 96 well tray.] 10 μL of bacterial suspension was then added to the appropriate wells in the 96 well tray. Appropriate positive (no antimicrobial), negative (no antimicrobial or bacteria) and negative dilution (a serial dilution control of antimicrobial and broth) controls were included in each assay. […] The MBC was determined by a 99.95% inhibition of S. pneumoniae, taking into account the dilution factor. MICs and MBCs were determined in quadruplicate and the mode was taken as the representative value. The MIC50, MIC90 and MIC range and MBC50, MBC90 and MBC range were determined according to CLSI standards. The MIC50 and MIC90, or MBC50 and MBC90, are defined by the lowest concentrations which, when all the MICs and MBCs of the isolates are arranged from lowest to highest, inhibited the 50th and 90th percentile of the total amount of isolates, respectively.

MRSA = assay: Broth microdilution MIC, Example 7 (NCL812 and analogues); assay type: cell-based, Staphylococcus aureus
Summary of the method: as §1

S. pneumoniae strain D39 = assay: MBC time kill studies (relative MBC at time points); assay type: cell-based, Streptococcus pneumoniae
Source text: MBC kill kinetics assays involved the preparation of three 96 well microtitre trays.

[3] = Visual analysis of solubility in diluents and media, Example 5; assay type: physicochemical
S. pneumoniae isolates [4] = assay: Micro-broth dilution MIC, Example 5; assay type: cell-based, Streptococcus pneumoniae
Protocol: For all in vitro assays, fresh pneumococcal isolates were grown overnight (O/N) on horse blood agar (HBA) plates (39 g/L Columbia blood agar base [Oxoid] 5% [v/v] defribinated horse blood [Oxoid] at 37° C. with 5% supplemented CO2). Mueller-Hinton blood agar with 5% defibrinated sheep blood (MHSBA Roseworthy Media and Blood Service) was used for disk diffusion analysis as directed by Clinical Laboratory Standards Institute (CLSI) standards. Pneumococci were routinely grown in broth consisting of 4% lysed horse blood (LHB) with Cation Adjusted Mueller Hinton Broth (CAHMB, [Difco]) at 37° C. with 5% supplemented CO2. […] Isolates were stored in HSB at −80° C.
as §2

Pseudomonas aeruginosa = assay: Broth microdilution MIC, Example 7 (NCL812 and analogues); assay type: cell-based; conditions: 24 hours; 1st and 2nd replicate rows
Escherichia coli = assay: as above; assay type: cell-based; conditions: 24 hours; 1st and 2nd replicate rows
[5] = isolate WCH158, Table 22, CAMHB diluent for NCL062

For `C/C(=N\NC(=N)N/N=C(\C)c1ccc(Cl)cc1)c1ccc(Cl)cc1.Cl` [NCL062], the “activity against VRE among analogues” value (VRE; MIC testing, two VRE strains) was “greatest activity”, the VRE (VRE; bioassay ranking, VRE) was 1.5 µg/mL and the “MIC (μg/ml) at 24 hours, VRE 1” value (VRE; isolate VRE 1, 24 hours, 1st and 2nd replicate rows) was 2 µg/mL. The “MIC (μg/ml) at 24 hours, VRE 2” value (VRE; isolate VRE 2, 24 hours, 1st and 2nd replicate rows) was 1 µg/mL, the “M + R” value [1] was 2.25 µg/mL and the MBC (S. pneumoniae isolates [2]; A66.1) was 32 mg/L. For the same compound, the MBC (S. pneumoniae isolates [2]; D39) was 4 mg/L, the MBC (S. pneumoniae isolates [2]; EF3030) was 16 mg/L and the MBC (S. pneumoniae isolates [2]; L82016) was 32 mg/L. For the same compound, the MBC (S. pneumoniae isolates [2]; P9) was 16 mg/L, the MBC (S. pneumoniae isolates [2]; P21) was 4 mg/L and the MBC (S. pneumoniae isolates [2]; TIGR4) was 8 mg/L. It also gave an MBC (S. pneumoniae isolates [2]; WCH16) of 32 mg/L, an MBC (S. pneumoniae isolates [2]; WCH43) of 4 mg/L and an MBC (S. pneumoniae isolates [2]; WCH46) of 32 mg/L. For the same compound, the MBC (S. pneumoniae isolates [2]; WCH57) was 8 mg/L, the MBC (S. pneumoniae isolates [2]; WCH77) was 8 mg/L and the MBC (S. pneumoniae isolates [2]; WCH86) was 8 mg/L. For the same compound, the MBC (S. pneumoniae isolates [2]; WCH89) was 4 mg/L, the MBC (S. pneumoniae isolates [2]; WCH92) was 8 mg/L and the MBC (S. pneumoniae isolates [2]; WCH137) was 4 mg/L. It also gave an MBC (S. pneumoniae isolates [2]; WCH158) of 16 mg/L, an MBC (S. pneumoniae isolates [2]; WCH184) of 16 mg/L and an MBC (S. pneumoniae isolates [2]; WCH211) of 4 mg/L. For the same compound, the MBC (S. pneumoniae isolates [2]; WU2) was 64 mg/L, the MBC50 (S. pneumoniae isolates [2]; all S. pneumoniae isolates) was 16 mg/L and the MBC90 (S. pneumoniae isolates [2]; all S. pneumoniae isolates) was 32 mg/L. The “MBC Range” value (S. pneumoniae isolates [2]; all S. pneumoniae isolates) was 4 to 64 mg/L, the MBC (S. pneumoniae isolates [2]; [5]) was 64 mg/L and the “activity against MRSA among analogues” value (MRSA; MIC testing, two MRSA strains) was “greatest activity”. The MRSA (MRSA; bioassay ranking, MRSA) was 3 µg/mL, the “MIC (μg/ml) at 24 hours, MRSA 1” value (MRSA; isolate MRSA 1, 24 hours, 1st and 2nd replicate rows) was 2 µg/mL and the “MIC (μg/ml) at 24 hours, MRSA 2” value (MRSA; isolate MRSA 2, 24 hours, 1st and 2nd replicate rows) was 4 µg/mL. For the same compound, the constant bactericidal concentration (S. pneumoniae strain D39; between 24 and 48 h) was 4 µg/mL, the “immediate MBC” value (S. pneumoniae strain D39; within the first 10 min of administration) was 8 mg/L and the “Visual analysis of solubility” value ([3]; Diluent CAMHB) was “Transparent”. For the same compound, the “Visual analysis of solubility” value ([3]; Diluent DMSO) was “Precipitate”, the “Visual analysis of solubility” value ([3]; Diluent PBS) was “Precipitate” and the “Visual analysis of solubility” value ([3]; Media 4% LHB:CAMHB) was “Transparent”. For the same compound, the “Visual analysis of solubility” value ([3]; Media 10% horse serum-supplemented broth) was “Transparent”, the MIC (S. pneumoniae isolates [4]; A66.1) was 8 mg/L and the MIC (S. pneumoniae isolates [4]; D39) was 2 mg/L. The “Relative MIC with media type for D39” value (S. pneumoniae isolates [4]; D39, 4% LHB:CAMHB) was 4 mg/L, the “Relative MIC with media type for D39” value (S. pneumoniae isolates [4]; D39, 10% horse serum-supplemented broth) was 32 mg/L and the MIC (S. pneumoniae isolates [4]; EF3030) was 16 mg/L. The MIC (S. pneumoniae isolates [4]; L82016) was 8 mg/L, the MIC (S. pneumoniae isolates [4]; P9) was 4 mg/L and the MIC (S. pneumoniae isolates [4]; P21) was 4 mg/L. The “MIC of D39, stored pre-prepared micro-titer trays” value (S. pneumoniae isolates [4]; Storage condition 4° C.) was 4 mg/L, the “MIC of D39, stored pre-prepared micro-titer trays” value (S. pneumoniae isolates [4]; Storage condition −2° C.) was 4 mg/L and the MIC (S. pneumoniae isolates [4]; TIGR4) was 8 mg/L. It also gave an MIC (S. pneumoniae isolates [4]; WCH16) of 32 mg/L, an MIC (S. pneumoniae isolates [4]; WCH43) of 2 mg/L and an MIC (S. pneumoniae isolates [4]; WCH46) of 32 mg/L. For the same compound, the MIC (S. pneumoniae isolates [4]; WCH57) was 4 mg/L, the MIC (S. pneumoniae isolates [4]; WCH77) was 8 mg/L and the MIC (S. pneumoniae isolates [4]; WCH86) was 4 mg/L. For the same compound, the MIC (S. pneumoniae isolates [4]; WCH89) was 4 mg/L, the MIC (S. pneumoniae isolates [4]; WCH92) was 8 mg/L and the MIC (S. pneumoniae isolates [4]; WCH137) was 2 mg/L. It also gave an MIC (S. pneumoniae isolates [4]; WCH158) of 16 mg/L, an MIC (S. pneumoniae isolates [4]; WCH184) of 16 mg/L and an MIC (S. pneumoniae isolates [4]; WCH211) of 2 mg/L. For the same compound, the MIC (S. pneumoniae isolates [4]; WU2) was 16 mg/L, the MIC50 (S. pneumoniae isolates [4]; all S. pneumoniae isolates) was 8 mg/L and the MIC90 (S. pneumoniae isolates [4]; all S. pneumoniae isolates) was 32 mg/L. The “MIC range” value (S. pneumoniae isolates [4]; all S. pneumoniae isolates) was 2 to 32 mg/L, the MIC (S. pneumoniae isolates [4]; isolate A66.1, Table 22, CAMHB diluent for NCL062) was “Confluent” and the MIC (S. pneumoniae isolates [4]; isolate D39, Table 22, CAMHB diluent for NCL062) was “Confluent”. For the same compound, the MIC (S. pneumoniae isolates [4]; isolate P21, Table 22, CAMHB diluent for NCL062) was “Confluent”, the MIC (S. pneumoniae isolates [4]; isolate WCH57, Table 22, CAMHB diluent for NCL062) was “Confluent” and the MIC (S. pneumoniae isolates [4]; [5]) was “Confluent”. For the same compound, the MIC (S. pneumoniae isolates [4]; isolate WU-2, Table 22, CAMHB diluent for NCL062) was “Confluent”, the “MIC (μg/ml) at 24 hours, P. aeruginosa” value (Pseudomonas aeruginosa) was greater than 128 µg/mL and the “MIC (μg/ml) at 24 hours, E. coli” value (Escherichia coli) was greater than 128 µg/mL.
